Activity calls are given as the source filed them.
Tests used:
[1] = target: Protein disulfide-isomerase (Homo sapiens, UniProt P07237); experiment: inhibition of PDI-driven insulin aggregation – biochemical, turbidity, absorbance, cherry-picked samples, dose response (AID 602350); type: functional
[2] = target: Peroxisome proliferator-activated receptor gamma/Nuclear receptor corepressor 2 (Homo sapiens, UniProt P37231+Q9Y618); experiment: Counterscreen for NR2E3 inverse agonists: TR-FRET-based biochemical high throughput dose response assay to identify inverse agonists of the interaction between peroxisome proliferator-activated receptor gamma (PPARg) and nuclear receptor co-repressor 2 (NCOR2).; type: functional
[3] = target: Photoreceptor-specific nuclear receptor (Homo sapiens, UniProt Q9Y5X4); experiment: ligands suppressing NR2E3 nuclear receptor activity – biochemical, TR-FRET, dose response (AID 463256); type: functional
Chain of Photoreceptor-specific nuclear receptor (Q9Y5X4 whole entry): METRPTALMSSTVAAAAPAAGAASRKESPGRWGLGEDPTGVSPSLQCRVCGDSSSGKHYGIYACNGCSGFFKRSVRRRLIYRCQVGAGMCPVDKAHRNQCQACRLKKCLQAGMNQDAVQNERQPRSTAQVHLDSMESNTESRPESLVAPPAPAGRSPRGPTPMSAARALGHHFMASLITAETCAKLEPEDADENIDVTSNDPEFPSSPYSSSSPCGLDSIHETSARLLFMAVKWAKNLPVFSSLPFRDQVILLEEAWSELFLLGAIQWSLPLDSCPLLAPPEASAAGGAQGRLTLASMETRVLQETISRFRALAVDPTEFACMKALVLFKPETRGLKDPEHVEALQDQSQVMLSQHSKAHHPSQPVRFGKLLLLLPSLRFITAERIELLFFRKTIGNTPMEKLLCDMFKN

CHO-K1 = experiment: (§1) Counterscreen for antagonists of the orexin 1 receptor (OX1R; HCRTR1): Homogeneous time resolved fluorescence (HTRF)-based cell-based dose response assay to identify antagonists of the parental CHO-K1 cell line. [Related pubchem assays (depositor defined):AID434989, AID435008, AID463079, AID485270, AID492963, AID492964, AID492965, AID493232, AID504699, AID504701]; type: functional; details: Cricetulus griseus
[4] = as §1, with “Fluorescence-based” for “Homogeneous time resolved fluorescence (HTRF)-based”, “cell-based high throughput” for “cell-based”, “CHO” for “CHO-K1”; type: functional
[5] = target: T1, Orexin/Hypocretin receptor type 1 (Homo sapiens, UniProt O43613); experiment: Homogeneous Time Resolved Fluorescence (HTRF)-based cell-based high throughput dose response assay for antagonists of the orexin 1 receptor (OX1R; HCRTR1). [Related pubchem assays (depositor defined):AID434989, AID435008, AID463079, AID485270, AID492963, AID492964, AID492965, AID493232, AID504717, AID504718]; type: functional
T1 sequence (O43613 whole entry): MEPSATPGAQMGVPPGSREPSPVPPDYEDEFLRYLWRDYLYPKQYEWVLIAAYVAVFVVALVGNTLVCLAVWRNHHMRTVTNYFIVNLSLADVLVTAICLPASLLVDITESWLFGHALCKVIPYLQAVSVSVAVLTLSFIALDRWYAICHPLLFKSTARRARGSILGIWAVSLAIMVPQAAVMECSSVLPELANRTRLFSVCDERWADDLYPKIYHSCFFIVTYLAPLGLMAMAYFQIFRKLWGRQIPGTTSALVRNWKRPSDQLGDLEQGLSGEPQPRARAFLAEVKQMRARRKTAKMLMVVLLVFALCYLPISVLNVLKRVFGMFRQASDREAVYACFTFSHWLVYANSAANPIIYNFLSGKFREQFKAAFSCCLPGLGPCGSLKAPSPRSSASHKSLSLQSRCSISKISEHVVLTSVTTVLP

[6] = target: T1, Orexin/Hypocretin receptor type 1; experiment: Fluorescence-based cell-based high throughput dose response assay for antagonists of the orexin 1 receptor (OX1R; HCRTR1). [Related pubchem assays (depositor defined):AID434989, AID435008, AID463079, AID485270, AID492963, AID492964, AID492965, AID493232, AID504717, AID504718]; type: functional
Orexin receptor type 2 [7] = target: T2, Orexin receptor type 2 (Homo sapiens, UniProt O43614); experiment: Counterscreen assay for antagonists of the orexin 1 receptor (OX1R; HCRTR1): Fluorescence-based cell-based dose response assay for antagonists of the orexin 2 receptor (OX2R; HCRTR2), run by assay provider.; type: functional
T2 sequence (O43614 whole entry): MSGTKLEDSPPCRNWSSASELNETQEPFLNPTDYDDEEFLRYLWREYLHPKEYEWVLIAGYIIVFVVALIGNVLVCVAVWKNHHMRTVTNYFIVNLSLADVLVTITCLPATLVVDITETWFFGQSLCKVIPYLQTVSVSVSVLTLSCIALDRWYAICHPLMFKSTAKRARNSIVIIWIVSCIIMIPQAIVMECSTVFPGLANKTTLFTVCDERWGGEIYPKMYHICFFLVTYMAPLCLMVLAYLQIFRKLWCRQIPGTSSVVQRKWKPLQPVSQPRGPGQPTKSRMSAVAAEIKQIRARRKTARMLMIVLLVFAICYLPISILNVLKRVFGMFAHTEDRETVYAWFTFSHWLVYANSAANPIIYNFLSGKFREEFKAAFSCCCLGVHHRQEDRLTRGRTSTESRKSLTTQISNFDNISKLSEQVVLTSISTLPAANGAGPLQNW

Orexin receptor type 2 [8] = target: T2, Orexin receptor type 2; experiment: Counterscreen assay for antagonists of the orexin 1 receptor (OX1R; HCRTR1): Homogeneous Time Resolved Fluorescence (HTRF)-based cell-based dose response assay for antagonists of the orexin 2 receptor (OX2R; HCRTR2), run by assay provider.; type: functional
[9] = NIH-3T3 fibroblast cytotoxicity, dose response, cytotoxicity control, cell-based, fluorescence, Alamar Blue, secondary assay (AID 2327); type: functional;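 further: NIH-3T3 mouse fibroblasts cultured with fluconazole at 8 µg/mL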
[10] = luciferase reporter signal suppression in cells – H4 neuroglioma cells, luminescence, dose response (AID 1990); type: functional, cell-based
[11] = system: Streptococcus sp. 'group A'; experiment: Streptococcus pyogenes SK(-)GAS viability under kanamycin – luminescence, BacTiterGlo, confirmation, counter-screen for streptokinase expression inhibitor project, dose response (AID 1900); type: functional, organism-based
BJ [12] = experiment: BJ-TERT fibroblast viability loss – cell-based, RAS-independent, luminescence, dose response (AID 1933); type: functional; details: Homo sapiens
[13] = Luminescence Cell-Based Dose Response HTS to Identify Inhibitors of 5'UTR Stem-Loop Driven Prion Protein mRNA Translation in H4 Neuroglioblastoma Cells. [Related pubchem assays: 1827 (Project Summary), 1813 (Primary HTS)]; type: functional
[14] = alpha-synuclein stem-loop luciferase translation blockers – H4 neuroglioma cells, luminescence, confirmation (AID 1988); type: functional, cell-based
BJ [15] = experiment: cells; type: functional, cell-based; details: Homo sapiens
[16] = fluconazole-exposed Candida albicans growth modulators – fluorescence, retest, confirmation (AID 2467); type: functional, cell-based
BJ [17] = experiment: BJ-TERT-LT-ST fibroblast viability loss – cell-based, RAS-independent, luminescence, dose response (AID 1935); type: functional; details: Homo sapiens;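 further: BJ fibroblasts immortalized with TERT plus LT and ST oncogenes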
[18] = DRD fibroblast viability loss – cell-based, non-viral oncogenic, luminescence, dose response (AID 1934); type: functional; details: Homo sapiens
Streptococcus = experiment: GAS UMAA2166 growth inhibition – luminescence, BacTiterGlo, counter-screen for streptokinase expression inhibitor project, dose response (AID 1915); type: functional, organism-based;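 further: potency for reduction of bacterial viability or growth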
Beta-galactosidase = Beta-galactosidase (Escherichia coli, UniProt Q8VNN2); experiment: detection-enzyme interference by beta-gal modulators – biochemical, E. coli enzyme, set 3, artefact control for CCR6 antagonist project, dose response (AID 504712); type: functional
Chain of Beta-galactosidase (Q8VNN2 whole entry): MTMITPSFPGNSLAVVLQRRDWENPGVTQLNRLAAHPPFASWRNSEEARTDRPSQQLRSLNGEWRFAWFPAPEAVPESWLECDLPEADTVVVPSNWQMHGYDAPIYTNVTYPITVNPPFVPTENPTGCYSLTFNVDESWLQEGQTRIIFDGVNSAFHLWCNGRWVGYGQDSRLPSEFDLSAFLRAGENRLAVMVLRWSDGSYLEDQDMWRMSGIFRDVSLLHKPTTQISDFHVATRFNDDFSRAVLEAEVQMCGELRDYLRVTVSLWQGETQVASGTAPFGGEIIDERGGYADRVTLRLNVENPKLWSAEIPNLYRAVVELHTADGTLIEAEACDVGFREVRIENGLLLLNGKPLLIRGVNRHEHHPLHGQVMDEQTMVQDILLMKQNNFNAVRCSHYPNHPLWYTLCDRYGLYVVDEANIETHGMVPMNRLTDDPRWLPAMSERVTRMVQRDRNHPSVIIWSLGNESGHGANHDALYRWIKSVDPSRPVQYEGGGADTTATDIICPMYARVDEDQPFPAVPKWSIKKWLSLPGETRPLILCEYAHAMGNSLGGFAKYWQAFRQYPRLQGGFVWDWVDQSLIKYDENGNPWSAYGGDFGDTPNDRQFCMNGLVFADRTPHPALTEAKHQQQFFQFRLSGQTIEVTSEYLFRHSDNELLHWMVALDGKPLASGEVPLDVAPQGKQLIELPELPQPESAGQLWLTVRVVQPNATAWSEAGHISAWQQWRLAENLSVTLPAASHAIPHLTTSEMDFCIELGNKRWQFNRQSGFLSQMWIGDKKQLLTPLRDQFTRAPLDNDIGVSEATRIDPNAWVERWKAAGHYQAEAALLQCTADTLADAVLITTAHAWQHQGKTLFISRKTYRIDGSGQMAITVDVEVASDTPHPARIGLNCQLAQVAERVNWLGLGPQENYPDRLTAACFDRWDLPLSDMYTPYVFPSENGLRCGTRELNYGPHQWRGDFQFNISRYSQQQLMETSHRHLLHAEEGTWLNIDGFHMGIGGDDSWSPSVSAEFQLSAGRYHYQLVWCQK

[19] = target: T3, Short transient receptor potential channel 4 (Mus musculus, UniProt Q9QUQ5); experiment: calcium entry via TRPC4 opening agents – cell-based, HEK293 TRPC4/mu-opioid, Fluo-4 calcium, dose response (AID 434937); type: functional
T3 sequence (Q9QUQ5 whole entry): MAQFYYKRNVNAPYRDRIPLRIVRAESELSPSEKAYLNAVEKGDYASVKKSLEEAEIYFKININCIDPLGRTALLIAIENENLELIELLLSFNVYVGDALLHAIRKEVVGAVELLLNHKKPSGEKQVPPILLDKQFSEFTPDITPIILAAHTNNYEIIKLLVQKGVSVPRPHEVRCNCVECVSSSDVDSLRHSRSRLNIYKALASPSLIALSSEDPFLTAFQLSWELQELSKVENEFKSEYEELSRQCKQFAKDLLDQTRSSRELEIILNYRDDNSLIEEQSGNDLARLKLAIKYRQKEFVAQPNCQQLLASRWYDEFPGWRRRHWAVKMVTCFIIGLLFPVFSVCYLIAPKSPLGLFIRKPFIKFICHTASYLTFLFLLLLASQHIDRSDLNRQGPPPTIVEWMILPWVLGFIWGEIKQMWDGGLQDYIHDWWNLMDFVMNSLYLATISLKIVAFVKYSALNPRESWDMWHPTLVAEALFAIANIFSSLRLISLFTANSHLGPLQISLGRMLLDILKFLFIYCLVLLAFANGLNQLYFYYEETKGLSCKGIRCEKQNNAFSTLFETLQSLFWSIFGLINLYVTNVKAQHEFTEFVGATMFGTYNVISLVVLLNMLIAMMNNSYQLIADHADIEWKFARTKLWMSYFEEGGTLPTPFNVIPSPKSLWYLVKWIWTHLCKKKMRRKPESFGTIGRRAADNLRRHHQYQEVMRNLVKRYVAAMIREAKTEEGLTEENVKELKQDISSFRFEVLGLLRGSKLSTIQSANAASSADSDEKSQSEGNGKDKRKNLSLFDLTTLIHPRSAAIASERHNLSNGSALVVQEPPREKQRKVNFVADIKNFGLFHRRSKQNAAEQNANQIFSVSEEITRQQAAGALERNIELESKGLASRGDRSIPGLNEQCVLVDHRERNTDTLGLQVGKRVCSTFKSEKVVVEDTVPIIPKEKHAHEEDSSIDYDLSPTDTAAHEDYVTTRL

[20] = HEK-293T viability loss after treatment – luminescence, T-cell screen hits, cytotoxicity control for TCR NF-kB inhibitor project, dose response (AID 489026); type: functional, cell-based;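 further: cells exposed to compound about 14 hours before the viability readout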
Insulin-degrading enzyme [21] = target: T4, Insulin-degrading enzyme (Homo sapiens, UniProt P14735); experiment: recombinant IDE activation, cell-free – biochemical, fluorescence polarization, counter-screen for IDE activator project, dose response (AID 588681)
T4 sequence (P14735 whole entry): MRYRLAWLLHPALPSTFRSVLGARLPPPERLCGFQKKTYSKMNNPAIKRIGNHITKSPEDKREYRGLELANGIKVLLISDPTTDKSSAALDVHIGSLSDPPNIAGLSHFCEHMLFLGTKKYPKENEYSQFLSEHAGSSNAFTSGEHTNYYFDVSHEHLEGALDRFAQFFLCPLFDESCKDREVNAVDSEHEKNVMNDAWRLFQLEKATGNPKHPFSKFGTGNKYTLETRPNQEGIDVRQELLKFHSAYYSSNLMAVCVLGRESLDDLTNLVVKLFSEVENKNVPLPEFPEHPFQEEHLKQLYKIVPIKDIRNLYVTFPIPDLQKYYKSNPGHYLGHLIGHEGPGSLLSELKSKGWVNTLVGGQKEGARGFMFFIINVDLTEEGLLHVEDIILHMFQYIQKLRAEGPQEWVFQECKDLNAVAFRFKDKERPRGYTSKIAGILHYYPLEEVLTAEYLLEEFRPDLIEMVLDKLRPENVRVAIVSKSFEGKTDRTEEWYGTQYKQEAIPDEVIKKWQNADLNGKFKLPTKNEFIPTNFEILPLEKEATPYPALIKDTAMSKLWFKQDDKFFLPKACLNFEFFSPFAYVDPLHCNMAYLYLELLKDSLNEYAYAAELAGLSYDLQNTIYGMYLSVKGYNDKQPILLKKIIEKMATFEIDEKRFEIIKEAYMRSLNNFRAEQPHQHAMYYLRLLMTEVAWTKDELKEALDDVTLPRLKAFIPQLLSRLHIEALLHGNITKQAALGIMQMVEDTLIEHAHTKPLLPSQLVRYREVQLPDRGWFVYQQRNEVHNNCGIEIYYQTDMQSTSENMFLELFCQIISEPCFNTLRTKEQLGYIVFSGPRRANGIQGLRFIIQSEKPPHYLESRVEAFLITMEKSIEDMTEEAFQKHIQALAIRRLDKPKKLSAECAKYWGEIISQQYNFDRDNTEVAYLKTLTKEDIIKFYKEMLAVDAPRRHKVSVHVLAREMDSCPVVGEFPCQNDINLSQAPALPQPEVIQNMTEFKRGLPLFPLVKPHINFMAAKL

BJ [22] = experiment: growth inhibition of engineered Ras-driven BJ cells – cell-based, alamar blue fluorescence, cherrypicked samples, dose response (AID 2631); type: functional; details: Homo sapiens;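 further: confirmatory dose-response assay in RAS-dependent BJ fibroblasts engineered with TERT, LT and ST, with cytotoxicity read by fluorescence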
Insulin-degrading enzyme [23] = target: T4, Insulin-degrading enzyme; experiment: cellular IDE activation of Abeta substrate cleavage – fluorescence polarization, HEK cells, dose response (AID 588439); type: functional, cell-based
INS1 = experiment: INS-1E survival protection against cytokine death – cell-based, luminescence, retest, dose response (AID 449756); type: functional; details: Rattus norvegicus;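 further: cell death triggered by IL-1 beta plus TNF-alpha plus IFN-gamma mixture; protective hits raise ATP signal compared with cytokine alone wells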
HEK293 [24] = experiment: membrane integrity loss in HEK cells – cell-based, fluorescence, cytotoxicity control for IDE activator project, dose response (AID 588440); type: functional; details: Homo sapiens;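 further: cytotoxicity by LDH release measuring loss of membrane integrity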
HEK293 [25] = experiment: optical interference in Abeta FP readout, dose response, artefact control for IDE activator project, biochemical, fluorescence polarization (AID 588442); type: functional, cell-based; details: Homo sapiens
[26] = reduction of Shn3 3'UTR-driven luciferase in osteoblasts – cell-based, Clone20 osteoblasts, firefly luciferase, cherry-picked, dose response (AID 624132); type: functional;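 further: firefly luciferase luminescence from reporter carrying the Shn3 3'UTR in osteoblasts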
[27] = loss of viability in HepG2 cells – cell-based, CellTiter-Glo, cherry-picked, cytotoxicity control for Shn3 inhibitor project, dose response (AID 624134); type: functional
[28] = non-specific 3'UTR reporter inhibition in Clone20-Shn3RL – cell-based, Renilla luciferase, cherry-picked, counter-screen for Shn3 inhibitor project, dose response (AID 624133); type: functional

Chain of Protein disulfide-isomerase (P07237 whole entry): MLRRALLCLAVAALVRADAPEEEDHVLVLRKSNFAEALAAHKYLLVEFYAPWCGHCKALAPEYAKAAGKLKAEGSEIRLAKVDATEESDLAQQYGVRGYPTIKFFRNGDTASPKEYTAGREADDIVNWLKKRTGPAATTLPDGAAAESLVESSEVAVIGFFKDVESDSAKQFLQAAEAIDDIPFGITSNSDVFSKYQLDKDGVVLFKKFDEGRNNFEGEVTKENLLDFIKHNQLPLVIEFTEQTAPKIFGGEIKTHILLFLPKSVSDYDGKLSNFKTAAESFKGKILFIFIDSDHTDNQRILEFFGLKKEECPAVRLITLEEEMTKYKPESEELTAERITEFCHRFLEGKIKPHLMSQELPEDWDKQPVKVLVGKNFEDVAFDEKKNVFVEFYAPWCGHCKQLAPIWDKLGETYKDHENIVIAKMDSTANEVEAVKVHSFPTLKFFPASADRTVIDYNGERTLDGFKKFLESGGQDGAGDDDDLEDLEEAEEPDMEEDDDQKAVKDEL

Structure (SMILES): CN(C)C(=O)CSc1nnc([C@H](Cc2c[nH]c3ccccc23)NC(=O)OC(C)(C)C)o1
- AC50 [1]: 19.5 µM (active)

Structure (SMILES): Cc1nc2ccc(NC(=O)c3oc4ccc(F)cc4c3C)cc2s1
- IC50 [2]: 8.73 µM (active)
- IC50 [3]: > 39.8 µM (not active)
- IC50 (CHO-K1): > 66.2 µM (inactive)
- IC50 [4]: > 49.7 µM (inactive)
- IC50 [5]: 0.386 µM (active)
- IC50 [6]: 1.76 µM (active)
- IC50 (Orexin receptor type 2 [7]): > 88.8 µM (inactive)
- IC50 (Orexin receptor type 2 [8]): > 50 µM (inactive)

Structure (SMILES): CNC[C@H](CC1CCCCC1)NC[C@H](Cc1ccccc1)NCCC12CC3CC(CC(C3)C1)C2
- EC50 [9]: 136 µM (inconclusive)
- EC50 [10]: 5.5 µM (active)
- EC50 [11]: 3.27 µM (active)
- EC50 (BJ [12]): 2.64 µM (inconclusive)
- EC50 [13]: > 120 µM (not active)
- EC50 [14]: > 120 µM (not active)
- EC50 (BJ [15]): 5.14 µM (inconclusive)
- EC50 [16]: 3.71 µM (active)
- EC50 (BJ [17]): 2 µM (active)
- EC50 [18]: 4.21 µM (active)
- EC50 (Streptococcus): 8.1 µM (active)
- IC50 (Beta-galactosidase): > 66.6 µM (inactive)
- EC50 [19]: 8.41 µM (active)
- IC50 [20]: 22.8 µM (inactive)
- EC50 (Insulin-degrading enzyme [21]): > 54.7 µM (inactive)
- EC50 (BJ [22]): 0.509 µM (inconclusive)
- EC50 (Insulin-degrading enzyme [23]): 7.02 µM (active)
- AC50 (INS1): 3.77 µM (active)
- IC50 (HEK293 [24]): 3.37 µM (active)
- EC50 (HEK293 [25]): > 55.9 µM (inactive)
- AC50 [26]: 5.51 µM (active)
- AC50 [27]: 4.47 µM (active)
- AC50 [28]: 7.45 µM (active)

Reference: ChEMBL document CHEMBL1201862, “PubChem BioAssay data set” (2004)
